Reference: US20110136880A1, “Latrunculin-Based Macrolides and Their Uses” (priority 2009, published 2011)

Experiments:
[1] = test system: microvessel density marker CD31 in endothelial colony forming cells (ECFCs); experiment: Angiogenesis inhibition assay (CD31 in ECFCs); format: cell-based
Protocol: Effects on Angiogenesis. Angiogenesis inhibition assays were conducted using endothelial colony forming cells (ECFCs). The microvessel density marker CD31 was quantified using confocal laser scanning microscopy and immunohistochemistry.

[2] = test system: alkaline phosphatase in C2C12 cells; experiment: Alkaline phosphatase in C2C12 cells (Wnt pathway); format: cell-based
Excerpt: (§1) Effects on Wnt/β-catenin. […] These two compounds affected both alkaline phosphatase and β-catenin levels in C2C12 cells.

[3] = test system: alkaline phosphatase in HuADSC cells; experiment: Alkaline phosphatase in HuADSC cells; format: cell-based
β-catenin in C2C12 cells = experiment: Wnt/β-catenin signaling, β-catenin levels in C2C12 cells; format: cell-based
Excerpt: as §1

HeLa cells = experiment: HeLa cell G2/M assays; format: cell-based; settings: less active than compound 11
Excerpt: This assay measures HeLa cell proliferation, apoptosis, DNA content and condensation, cyclin B, and phosphor-histone H3.

array of kinases = experiment: Kinase profiling; format: binding; settings: any kinase tested
Protocol: Latrunculins B and H (compounds 20 and 14, respectively) were tested in a panel of assays including ApoE secretion, anti-angiogenesis, G2/M, Wnt pathway, insulin secretion, and an array of kinase profiling. The G2/M assays include HeLa cell proliferation, apoptosis, DNA content, and condensation, cyclin B, and phosphor-histone H3. […] Alkaline phosphatases may perhaps be a target of the anti-invasive latrunculin 11.

[4] = test system: prostate cancer cells PC-3M-CT+; settings: 100 nM dose; without cytotoxicity; cited from earlier work
pyrene-conjugated actin = molecular target: T1, pyrene-conjugated actin (Oryctolagus cuniculus, UniProt P68135); experiment: Pyrene actin polymerization assay; format: biochemical
T1 construct: purchased Cytoskeleton, Denver, Colo
Protocol: An actin polymerization kit was used to assess the direct actin-binding activity of each analogue at two concentrations: 100 nM and 1 μM. This kit is based on the enhanced fluorescence of pyrene-conjugated actin that occurs during polymerization. When pyrene-G-actin (monomer) forms pyrene-F-actin, fluorescence is enhanced. The enhanced fluorescence is used to follow polymerization over time. Table 2 lists activities as the percentage of actin polymerization inhibition, compared to the negative vehicle control (DMSO), along with calculated IC50.
Pyrene-Actin Polymerization Assays. Actin polymerization assays were performed in accordance with the manufacturer's instructions (Cytoskeleton, Denver, Colo.). Briefly, […] final concentration of monomeric actin (1:10 pyrene labeled) was incubated on ice for 10 min with one of various concentrations of one of the latrunculin derivatives. Samples were then equilibrated 10 min in an ELISA plate reader (BioTek, VT), after which polymerization was induced by adding KCl, MgCl2, and ATP. Compounds 1-14 were tested at 0.1, 0.5, 1.0, and 10 μM. The IC50 for each compound was calculated using GraphPad Prism 5.0.
Pyrene-actin polymerization assays. Actin polymerization inhibitory activity is assessed using the Cytoskeleton Actin Polymerization kit (Cytoskeleton, Denver, Colo.). Briefly, […] (final concentration) of monomeric actin (1:10 pyrene labeled) is incubated on ice for 10 min with one of various concentrations of the test latrunculin compound. Samples are equilibrated 10 min in an ELISA plate reader (BioTek, VT), after which polymerization is induced by adding KCl, MgCl2, and ATP. Compounds are tested at 0.1, 0.5, 1.0, and 10 μM. The IC50 for each compound is calculated using GraphPad Prism 5.0.

MCF7 = experiment: MTT proliferation assay, MCF7; format: cell-based, human
Excerpt: (§2) The antiproliferative and anti-invasive activities of compounds 1-14 were quantified using MTT and cell invasion assay kits, respectively. Latrunculin A (compound 1) was used as a positive control in all biological assays, because it is known to be an actin polymerization inhibitor, with cytotoxic, antiproliferative, and anti-invasive activities. The 3-[4,5-dimethylthiazol-2-yl]-2,5-diphenyl tetrazolium bromide (MTT) assay selectively detects living cells in a quantitative, colorimetric fashion, based on a living cell's ability to reduce MTT to an insoluble, purple formazan dye. The MTT assay is routinely used to assess cytotoxicity and proliferation inhibition activities. The antiproliferative activities of compounds 1-14 were measured against two human mammary gland adenocarcinoma cell lines, MCF7 and MDA-MB-231, and against human prostate cancer cells PC-3 at five different doses (0.1, 0.5, 1, 10, and 50 μM). While many of the semisynthetic latrunculins had similar activity levels, some had greater activity than compound 1. […] Although the MDA-MB-231 cells were more resistant than MCF7 against most latrunculin derivatives tested, compound 14 had potent activity against both cell lines.
(§3) MTT Proliferation Assay. The growth of MCF7, MDA-MB-231, and PC-3 cancer cell lines was measured using an MTT kit (TACS™, TREVIGEN®, Inc.). Exponentially growing cells were plated in a 96-well plate at a density of 8×10^3 cells per well, and allowed to attach for 24 h. Complete growth medium was then replaced with 100 μL of RPMI serum-free medium containing various concentrations (50, 10, 1, 0.5, 0.1 μM) of the particular test compound. Culture continued at 37° C. under 5% CO2. After 72 h of culture, the cells were treated with MTT solution (10 μL/well) at 37° C. for 4 h. The color reaction was stopped by adding solubilization/stop solution (100 μL/well). Incubation continued at 37° C. continued to completely dissolve the formazan dye product. Absorbance of the samples was determined at 570 nm with an ELISA plate reader (BioTek, VT). The number of cells per well was calculated against a standard curve that had been prepared by plating various concentrations of cells, as determined by hemocytometer, at the start of each experiment. IC50 for each compound was calculated using a nonlinear regression curve fit of log concentration versus the number of cells/well, using GraphPad Prism 5.0 (GraphPad Software, La Jolla, Calif.).

PC-3 = experiment: MTT proliferation assay, PC-3; format: cell-based, human
Excerpt: as §2, §3

MDA-MB-231 = experiment: MTT proliferation assay, MDA-MB-231; format: cell-based, human
Excerpt: as §2, §3

MDA-MB-231 cells = experiment: Cultrex BME cell invasion assay; format: cell-based, human
Protocol: The anti-invasive activities of compounds 1-14 were measured using a 96 well basement membrane extract (BME) cell invasion assay kit against the highly metastatic MDA-MB-231 cells. This assay employs a simplified Boyden Chamber with a polyethylene terephthalate membrane (8 μm pore size). Cell invasion was quantified using calcein-acetomethylester (calcein-AM). Cells internalize calcein-AM; intracellular esterases then cleave the acetomethylester moiety to generate free calcein. Free calcein fluoresces brightly. This fluorescence may be used to quantify the number of cells that have invaded across the BME. To correlate the anti-invasive activities of the latrunculin A derivatives with their actin-disrupting activities, compounds 1-14 were each tested at non-toxic concentrations. […] Accordingly, all compounds were tested at 0.1, 0.5, and 1.0 μM. Compound 3 killed 17% of MDA-MB-231 cells at 1.0 μM, while the same dose of compound 3 inhibited 95% of MDA-MB-231 cells' invasion. […] The anti-invasive activities of compounds 1-14 are attributed primarily to the inhibition of actin polymerization, not to cell death per se.
Cultrex® Cell Invasion Assay. Anti-invasive activities were measured using Trevigen's Cultrex® Cell Invasion Assay as described in K. Tamilarasan et al., BMC Cell Biol. 2006, 7, 17-30; and P. Borghesani et al., Development. 2002, 6, 1435-1442. About 50 μL of basement membrane extract (BME) coat was added to each well. After incubation for 4 h at 37° C. under 5% CO2, 50,000 MDA-MB-231 cells in 50 μL of serum free RPMI medium were added to each well in the top chamber, along with the test compound at one of several concentrations (0.1, 0.5, 1 μM). About 150 μL of RPMI medium was added to the lower chamber in 10% FBS and penicillin/streptomycin, using fibronectin ([…]) and N-formyl-met-leu-phe (10 nM) as chemoattractants. Cells were allowed to migrate to the lower chamber at 37° C. under 5% CO2. After 24 h, the top and bottom chambers were aspirated and washed with the washing buffer that had been supplied with the kit. About 100 μL of Cell Dissociation Solution/Calcein-AM solution was added to the bottom chamber, and the cells were incubated at 37° C. under CO2 for 1 h. Briefly, the cells internalize calcein-AM, and then the intracellular esterases cleave the AM moiety to generate free calcein. […] The number of cells that had invaded through the BME coat was calculated using a standard curve.

[5] = test system: breast, CNS, colon, lung, melanoma, ovarian, and renal cancer cells; experiment: Antiproliferative testing against 60 cell lines (NSC compounds); format: cell-based

C/C1=C/C(=O)O[C@@H]2C[C@@H](CC[C@H](C)/C=C\CC1)O[C@@](O)([C@@H]1CSC(=O)N1)C2 [Compound 20, latrunculin B]
inhibition of CD31 in ECFCs ([1]; 2 μM): 100%
inhibition of CD31 in ECFCs ([1]; 10 μM): 100%
IC50 ([1]; read-out: IC50 CD31 in ECFCs): 43 nM
EC50 [2]: 91 nM
EC50 [3]: 141 nM
Wnt/β-catenin signaling (β-catenin in C2C12 cells): strongly inhibited
activity in G2_M assays compared with nocodazole (HeLa cells): greater activity than did nocodazole
affinity toward kinases (array of kinases): Neither compound 20 nor compound 14 showed affinity toward any kinase tested

latrunculin A 17-O-phenyl carbamate [Compound 18]
migration of PC-3M-CT+ cells [4]: inhibits the migration

C/C1=C/C(=O)O[C@@H]2C[C@@H](CC[C@H](C)/C=C\C=C\CC1)O[C@@](OCCc1ccccc1)([C@@H]1CSC(=O)N1)C2 [Compound 3, 17-O-Phenylethyllatrunculin A]
inhibition at 0.1 µM (pyrene-conjugated actin; 100 nM, compared to vehicle control (DMSO), read-out: Actin polymerization inhibition (%) 100 nM): 31%
inhibition at 1 µM (pyrene-conjugated actin; 1 μM, compared to vehicle control (DMSO), read-out: Actin polymerization inhibition (%) 1 μM): 94%
IC50 (pyrene-conjugated actin; mean ± SEM, triplicate): 184 ± 48 nM
IC50 (MCF7; Homo sapiens, MCF7, MTT, 72 h, mean ± SEM, read-out: IC50 (μM) MCF7): 0.1 ± 0.07 µM
fold increase in activity against MCF7 versus compound 1 (MCF7; relative to compound 1): 4.8 fold
IC50 (PC-3; Homo sapiens, PC-3, MTT, 72 h, read-out: IC50 (μM) PC-3): 1.22 µM
fold increase in activity against PC-3 versus compound 1 (PC-3; relative to compound 1): 3.2 fold
MDA-MB-231 cells killed (MDA-MB-231; 1.0 μM): 17%
IC50 (MDA-MB-231; Homo sapiens, MDA-MB-231, MTT, 72 h, mean ± SEM, read-out: IC50 (μM) MDA-MB-231): 2.71 ± 0.52 µM
fold more active against cell invasion than latrunculin A (compound 1) (MDA-MB-231 cells; 0.5 μM): 3.3 fold
inhibition at 1 µM (MDA-MB-231 cells; Homo sapiens, MDA-MB-231, 1.0 μM): 95%
number of the 60 cell lines tested with antiproliferative activity ([5]; dose of 10 μM): 18
log10GI50 ([5]; five-points dose-response, range over active cell lines): −7.02 to −7.90
